Data on one molecule can be found in patent publication US11241434B2, “Compositions and methods for improving cognition in a subject” (Yale University, priority 2013, dated 2022).

By NOAEL is commonly meant the highest dose or exposure tested at which no adverse effect was seen.

One series relates to PS19 mice. The series can be described thus: Morris water maze in P301S Tau (PS19) transgenic mice. It counts as in vivo, mouse. The settings on record: 8-month-old PS19 mice, 6 months of treatment, 5 mg/kg/d in diet. An excerpt:
FIGS. 11A-11C illustrate that Fyn kinase inhibition prevents memory deficits in P301S Tau transgenic tice. FIG. 11A: Timeline of PS19 mouse treatment. FIG. 11B: Morris water maze probe trial for 8-month-old PS19 or WT mice after 6 months of AZD0530 or Vehicle treatment. Twenty four hours after the reverse learning trials in the Morris water maze, the submerged platform was removed and the fraction of 60 sec spent in the target quadrant where the hidden platform had been located previously was recorded. n=11-15/group, each dot is one mouse. Data are mean±SEM. Dashed line indicates random chance performance. […] Latency was measured as the time for the mouse to cross to the opaque box. n=16-18/group. […]
To generate chow containing chow for chronic dosing, the compound was incorporated into purified diet pellets by Research Diets, Inc. by dissolving the compound in a solution of 0.5% w/v Hydroxypropylmethylcellulose/0.1% w/v polysorbate 80 at 1.429 mg/ml. […] The dosage of the drug in the food was calculated to take into account the average amount of food eaten by a mouse in a single day per kg of weight and adjusted to be equivalent to ingesting 5 mg/kg per day.
The Morris water maze paradigm was performed as previously described (Kaufman et al., 2015, Ann Neurol 77:953-971). […] Latency was measured as the time that it took for the mouse to find and spend 1 second on the hidden platform. […]

The subject of series [1] is APPswe/PS1ΔE9 transgenic mice. The series can be described thus: Novel Object Recognition in AD transgenic mice. It counts as in vivo, mouse. The settings on record: 5 weeks treatment.
For series [2] the following is noted: dog, 6 month study, cited from earlier work.

`CN1CCN(CCOc2cc(OC3CCOCC3)c3c(Nc4c(Cl)ccc5c4OCO5)ncnc3c2)CC1` [saracatinib, N-(5-chloro-benzo[d][1,3]dioxol-4-yl)-7-(2-(4-methylpiperazin-1-yl)ethoxy)-5-(tetrahydro-2H-pyran-4-yloxy)quinazolin-4-amine]: the “probe trial after reverse learning, time in target quadrant” value in the series with PS19 mice is given as “significantly improved the memory deficit”. Besides, the “Novel Object Recognition performance” value in series [1] is reported as “performance equal to the WT mice”. The toxicity result in series [2] (5 mg/kg/d) is “mild GI toxicity”. In addition, in series [2], the no observed adverse effect level (NOAEL) is 0.5 mg/kg/day.
